Where “and” joins values, the source holds several entries; their conditions need not be identical. Equal values may be shown once.
Columns and labels:
[1] = test system: calf thymus DNA; assay: Assessment of DNA binding activity of Pt in pUF (ex vivo incubation); details: for DNA binding of Pt in patient pUF samples: pUF of two treated patients per drug; for DNA binding of Pt in patient pUF samples / Added Pt bound to DNA: five-day incubation with calf thymus DNA; for Added Pt bound to DNA: parent compound added to pUF of healthy volunteers; for Total binding capacity of equivalent concentrations of parent compound recovered (average): patient pUF, more than 8 months after end of treatment
Experimental: The latter was done to assess the binding capacity of the parent compounds at concentrations in the same range as the patients samples. After a five-day incubation to achieve a maximal Pt-DNA binding, the DNA was precipitated, washed and dissolved in water as described by Brouwers et al. After hydrolysis, the Pt-DNA binding was assessed.

[2] = test system: plasma proteins; assay: Ex vivo activity of STS (release of Pt from plasma proteins); format: in vitro ADME, human; details: for Percentage of plasma Pt recovered in pUF after STS incubation: 750 μL plasma + 25 μL 250 g/L STS
Experimental: Therefore, 750 μL of plasma were incubated with 25 μL of a 250 g/L STS solution. As control, 750 μL of plasma were incubated with 25 μL of water. After incubation, pUF was prepared and Pt concentrations of the STS incubated samples and control samples were compared. Protein concentrations in the ultrafiltrates were analysed using a 2-D Quant Kit (GE healthcare Bio-Sciences AB, Uppsala, Sweden).

[3] = Renal function (MDRD GFR) at chemotherapy and at follow-up; format: in vivo, human
Experimental: Differences between Pt levels of cisplatin and oxaliplatin treated patients, control cancer patients, and healthy controls were evaluated using the Mann-Whitney U test. The Wilcoxon signed rank test was used to test the difference between the renal function at the time of chemotherapy and at follow-up. Correlations between plasma and pUF level of Pt treated patients were evaluated by the Pearson correlation coefficient. SPSS was used to perform these tests.
Pt levels were proportional to the cumulative dose. […] An association between GSTT1,GSTM1, and GSTP1 genotypes and Pt levels could not be established. The effect of the renal function on Pt levels was evaluated using the glomerular filtration rate (GFR) which was calculated with the 'Modification of Diet in Renal Disease (MDRD)'-formula [21]. […] Figure 3 and 4 show the MDRD GFR for patients at the start of their chemotherapy treatment and at follow-up. […] Long-term plasma Pt concentrations were lower when the GFR at the time of chemotherapy was higher.

[4] = Long-term Pt levels in plasma of treated patients (ICP-MS); format: in vivo; details: patients treated 8 to 75 months before
Experimental: Whole blood samples for Pt analysis were collected in 10 mL EDTA containing tubes (Becton Dickinson Vacutainer Systems, Plymouth, UK). EDTA was preferred above heparin because the fraction peripheral blood mononuclear cells (PBMCs) could be isolated easier from EDTA plasma. […] Plasma was obtained by centrifuging the whole blood samples for 15 min (1,000 g, 4°C). The fraction containing PBMCs was isolated from the whole blood sample using the method described by Pluim et al [13]. PUF was obtained by centrifuging the plasma fraction through 3 and 30 kDa cut-off ultrafiltrate filter (Centriplus Millipore Corporation, Bedford, MA, USA) for 30 min (1,000 g, 20°C). […] All samples were stored at -20°C until analysis.
Pt analyses were performed using an ICP-MS and a validated method described previously [15]. Pt levels were assessed in plasma, pUF, and bound to DNA in PBMCs. DNA was isolated from PBMCs using a method described by Pluim et al [13]. Before ICP-MS analysis, the DNA was hydrolysed in 1% (v/v) HNO3 solution at 70°C. The limit of quantification (LLOQ) of the method was 20 ng/L for plasma, 7.5 ng/L for pUF, and the absolute sensitivity for Pt bound to DNA was 0.75 pg Pt (7.5 fg Pt per μg DNA when using 100 μg DNA). The LLOQs were determined on the basis of five times the noise in blank matrix solutions.

[5] = Long-term Pt levels in plasma ultrafiltrate (pUF) of treated patients (ICP-MS); format: in vivo, human; details: pUF prepared after sampling
Experimental: Whole blood samples for Pt analysis were collected in 10 mL EDTA containing tubes (Becton Dickinson Vacutainer Systems, Plymouth, UK). […] Plasma was obtained by centrifuging the whole blood samples for 15 min (1,000 g, 4°C). […] PUF was obtained by centrifuging the plasma fraction through 3 and 30 kDa cut-off ultrafiltrate filter (Centriplus Millipore Corporation, Bedford, MA, USA) for 30 min (1,000 g, 20°C). […] All samples were stored at -20°C until analysis.
Pt analyses were performed using an ICP-MS and a validated method described previously [15]. Pt levels were assessed in plasma, pUF, and bound to DNA in PBMCs.

[6] = test system: plasma proteins; assay: Ex vivo assessment of protein binding capacity of Pt in pUF (plasma storage); format: in vitro ADME, human
Experimental: Pt concentrations analysed in pUF prepared after storage were compared to Pt concentrations analysed in pUF which was prepared immediately after blood sampling. Additionally, plasma samples were reanalyzed to assess whether or not Pt concentrations in plasma were reduced during storage due to adsorption to the tubes.

[7] = Effects of determinants on in vivo plasma Pt levels (NONMEM modelling)
Experimental: Additionally, serum creatinine was assessed at the time of study.
Possible relationships between determinants and Pt levels were evaluated using non-linear mixed effects modeling using NONMEM software (Version V1) (GloboMax LLC, Ellicott city, MD, USA). The first order conditional estimation method was used throughout. It was assumed that, due to the long follow-up, the treatment period was negligible compared to the follow-up time. The significance of established relationships was assessed using the likelihood ratio test.

[8] = individual patient plasma samples
[9] = plasma stored at -30°C for 144-278 days
[10] = two-compartment model, per compound

## N.N.[Cl][Pt][Cl] [Cisplatin, cisplatin]
[1]
  DNA binding of Pt in patient pUF samples: 1.8% and 2.4%
  Added Pt bound to DNA: 21%
  Total binding capacity of equivalent concentrations of parent compound recovered (average): 10%
[2]; [8]
  Factor increase of Pt in pUF after STS incubation: 1.4-fold and 2.7-fold and 2.3-fold and 2.9-fold
  Percentage of plasma Pt recovered in pUF after STS incubation: 17.5 and 34.9 and 30.7 and 36.6
[3]; in vivo
  GFR at the time of the current study (follow-up): 55 mL/min/1.73 m^2
  Median GFR before start of the Pt chemotherapy: 78 mL/min/1.73 m^2

## O=C1[O][Pt]2([NH][C@@H]3CCCC[C@H]3[NH]2)[O]C1=O [Oxaliplatin, oxaliplatin]
[4]
  Plasma Pt levels relative to mean level of unexposed controls: > 30 fold
[5]
  Percentage of plasma Pt recovered in pUF (average): 24.2%
[1]
  DNA binding of Pt in patient pUF samples: 0.78% and 1.1%
  Added Pt bound to DNA: 21%
  Total binding capacity of equivalent concentrations of parent compound recovered (average): 4.3%
[6]; individual patient samples, 144-278 days of storage at -30°C
  Percentage of plasma Pt recovered in pUF after storage: 25.2 and 21.2 and 16 and 15.8
[6]; individual patient samples, pUF prepared immediately after blood sampling
  Percentage of plasma Pt recovered in pUF before storage: 28.2 and 27.8 and 25.9 and 22.9
[6]; [9]
  Decrease in Pt concentrations in pUF after storage (average): 26%
  Plasma Pt concentrations over storage time: remained constant over time
[2]; [8]
  Factor increase of Pt in pUF after STS incubation: 1.5-fold and 1.4-fold and 2.0-fold
  Percentage of plasma Pt recovered in pUF after STS incubation: 40.4 and 46.2 and 39.5 and 38.7
[2]; individual patient plasma samples, control incubation with water
  Percentage of plasma Pt recovered in pUF: 27.2 and 32.2 and 20 and 26.5
[2]; over four samples per drug
  Increase in Pt pUF concentrations in samples prepared from STS treated plasma: 1.6 fold
[7]; [10]
  First elimination half-life (t1/2) of plasma Pt: 1.37 months
  Second elimination half-life (t1/2) of plasma Pt: 535 months
[3]; MDRD formula
  GFR at the time of the current study (follow-up): 61 mL/min/1.73 m^2
  Median GFR before start of the Pt chemotherapy: 65 mL/min/1.73 m^2

## O=S([O-])([O-])=S.[Na+].[Na+] [STS, sodium thiosulfate]
[7]; STS co-administration with intra-arterial cisplatin, p < 0.001
  Reduction in long-term plasma Pt levels: 71%

— PMC2559818 (BMC Clinical Pharmacology, 2008)
